Where two headings read alike, the source gives them in different places.
Experiments:
[1] = target: T1, rat adrenergic α1B receptor (Rattus norvegicus, UniProt P15823); test: Radioligand binding, adrenergic α1B ([3H]Prazosin); conditions: for Percentage inhibition of ligand binding, Adrenergic α1B (0.1 μM) / Percentage inhibition of ligand binding, Adrenergic α1B: 0.1 µM
T1 construct: rat adrenergic α1B receptor obtained from Wistar Rat liver; from tissue; host or cells: Wistar rat liver
T1 sequence (P15823 1-515): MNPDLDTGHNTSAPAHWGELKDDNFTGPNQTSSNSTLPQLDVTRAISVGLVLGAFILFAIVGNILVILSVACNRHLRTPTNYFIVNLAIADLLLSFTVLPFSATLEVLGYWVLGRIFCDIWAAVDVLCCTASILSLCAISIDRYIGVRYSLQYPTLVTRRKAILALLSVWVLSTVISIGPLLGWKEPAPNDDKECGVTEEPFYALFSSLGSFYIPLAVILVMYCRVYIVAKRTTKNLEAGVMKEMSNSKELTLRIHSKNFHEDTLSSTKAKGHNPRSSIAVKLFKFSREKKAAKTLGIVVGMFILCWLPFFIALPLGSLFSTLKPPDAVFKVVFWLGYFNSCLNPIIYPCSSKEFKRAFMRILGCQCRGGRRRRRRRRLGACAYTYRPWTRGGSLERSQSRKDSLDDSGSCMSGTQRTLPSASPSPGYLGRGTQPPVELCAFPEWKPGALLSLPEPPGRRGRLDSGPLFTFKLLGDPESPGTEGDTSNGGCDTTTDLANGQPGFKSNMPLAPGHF
Description: To evaluate in radioligand binding assays the activity of compounds of the invention, rat adrenergic α1B receptor obtained from Wistar Rat liver (Garcia-S'ainz, J. et al, Biochem. Biophys. Res. Commun. 186:760, 1992; Michel, A. et al, Br. J. Pharmacol. 98:883, 1989) in a modified Tris-HCl buffer (50 mM Tris-HCl buffer, pH 7.4, 0.5 mM EDTA) was used. Compounds of the invention were incubated with 0.25 nM [^3H]Prazosin for 60 min at 25° C. Non-specific binding was estimated in the presence of 10 μM phentolamine. Receptor proteins were filtered and washed, the filters were then counted to determine [^3H]Prazosin specifically bound. […] Compounds of the invention were tested in this biochemical assay and percent inhibition of specific binding was determined. Biochemical assay results are presented as the percent inhibition of specific binding in Table B1.

[2] = target: T2, human recombinant adrenergic α2B receptor (Homo sapiens, UniProt P18089); test: Radioligand binding, adrenergic α2B ([3H]Rauwolscine); conditions: for Percentage inhibition of ligand binding, Adrenergic α2B / Percentage inhibition of ligand binding, Adrenergic α2B (0.03 μM) / inhibition at 0.03 µM: [3H]Rauwolscine; for Percentage inhibition of ligand binding, Adrenergic α2B / Percentage inhibition of ligand binding, Adrenergic α2B (0.03 μM): 0.03 µM
T2 construct: expressed in transfected cells; host or cells: CHO-K1
T2 sequence (P18089 1-450): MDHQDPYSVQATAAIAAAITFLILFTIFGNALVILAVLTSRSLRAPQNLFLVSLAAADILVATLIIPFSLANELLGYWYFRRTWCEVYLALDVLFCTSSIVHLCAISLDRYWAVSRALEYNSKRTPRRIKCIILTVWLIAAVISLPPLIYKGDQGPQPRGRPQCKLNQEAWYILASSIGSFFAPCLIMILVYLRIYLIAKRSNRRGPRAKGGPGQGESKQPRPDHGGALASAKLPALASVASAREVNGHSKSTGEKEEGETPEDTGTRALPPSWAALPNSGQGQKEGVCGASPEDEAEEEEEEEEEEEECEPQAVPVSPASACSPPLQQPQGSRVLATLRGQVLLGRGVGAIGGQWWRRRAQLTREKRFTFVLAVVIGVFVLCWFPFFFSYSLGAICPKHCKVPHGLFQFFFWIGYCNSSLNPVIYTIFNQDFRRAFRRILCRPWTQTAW
Description: To evaluate in radioligand binding assays the activity of compounds of the invention, human recombinant adrenergic α2B receptor expressed in Chinese hamster ovary (CHO) K1 cells (Uhlen, S. et al, Eur. J. Pharmacol. 343(1):93, 1998) in a modified Tris-HCl buffer (50 mM Tris-HCl, pH 7.4, 12.5 mM MgCl2, 1 mM EDTA, 0.2% BSA) was used. Compounds of the invention were incubated with 2.5 nM [3H]Rauwolscine for 60 min at 25° C. Non-specific binding was estimated in the presence of 10 μM Prazosin. Receptor proteins were filtered and washed, the filters were then counted to determine [3H]Rauwolscine specifically bound. […] Compounds of the invention were tested in this biochemical assay and percent inhibition of specific binding was determined. Biochemical assay results are presented as the percent inhibition of specific binding in Table B1.

[3] = target: T3, human recombinant adrenergic α2A receptor (Homo sapiens, UniProt P08913); test: Radioligand binding, adrenergic α2A ([3H]MK-912); conditions: for Percentage inhibition of ligand binding, Adrenergic α2A / Percentage inhibition of ligand binding, Adrenergic α2A (0.1 μM): 0.1 µM; for Percentage inhibition of ligand binding, Adrenergic α2A (0.1 μM) / inhibition at 0.1 µM: repeat datapoints each shown; for inhibition at 0.1 µM: read-out: Percentage inhibition of ligand binding, Adrenergic α2A (0.1 μM), compound at 0.1 μM
T3 construct: expressed in transfected cells; host or cells: insect Sf9 cells
T3 sequence (P08913 1-465): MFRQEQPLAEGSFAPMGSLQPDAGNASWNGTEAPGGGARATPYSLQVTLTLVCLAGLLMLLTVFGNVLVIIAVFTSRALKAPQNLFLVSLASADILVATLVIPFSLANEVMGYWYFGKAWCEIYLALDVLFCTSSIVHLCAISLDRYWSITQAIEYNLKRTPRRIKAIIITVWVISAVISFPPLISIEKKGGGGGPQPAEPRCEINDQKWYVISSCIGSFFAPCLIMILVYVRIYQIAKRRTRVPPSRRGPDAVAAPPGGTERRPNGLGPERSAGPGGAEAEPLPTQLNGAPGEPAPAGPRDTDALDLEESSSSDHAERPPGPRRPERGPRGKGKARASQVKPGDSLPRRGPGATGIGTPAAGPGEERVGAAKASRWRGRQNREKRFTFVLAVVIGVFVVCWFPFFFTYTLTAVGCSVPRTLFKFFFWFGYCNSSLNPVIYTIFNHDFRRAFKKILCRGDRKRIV
Description: To evaluate in radioligand binding assays the activity of compounds of the invention, human recombinant adrenergic α2A receptor expressed in insect Sf9 cells (Uhlen, S. et al, J. Pharmacol. Exp. Ther. 271:1558, 1994) in a modified Tris-HCl buffer (50 mM Tris-HCl, pH 7.4, 12.5 mM MgCl2, 2 mM EDTA) was used. Compounds of invention were incubated with 1 nM [^3H]MK-912 for 60 min at 25° C. MK912 is (2S-trans)-1,3,4,5′,6,6′,7,12b-octahydro-1′,3′-dimethyl-spiro[2H-benzofuro[2,3-a]quinolizine-2,4′(1′H)-pyrimidin]-2′(3′H)-one hydrochloride. Non-specific binding was estimated in the presence of 10 μM WB-4101 (2-(2,6-Dimethoxyphenoxyethyl)aminomethyl-1,4-benzodioxane hydrochloride). Receptor proteins were filtered and washed, the filters were then counted to determine [^3H]MK-912 specifically bound. […] Compounds of the invention were tested in this biochemical assay and percent inhibition of specific binding was determined. Biochemical assay results are presented as the percent inhibition of specific binding in Table B1.

[4] = compound at 0.1 μM, [3H]Prazosin, repeat datapoints each shown
[5] = compound at 0.03 μM, repeat assays, each datapoint shown
[6] = compound at 0.1 μM, [3H]Prazosin, repeat assays, each datapoint shown
[7] = compound at 0.1 μM, [3H]MK-912, repeat assays, each datapoint shown
[8] = compound at 0.03 μM, repeat datapoints each shown
[9] = read-out: Percentage inhibition of ligand binding, Adrenergic α1B (0.1 μM), compound at 0.1 μM, [3H]Prazosin, repeat datapoints each shown
[10] = read-out: Percentage inhibition of ligand binding, Adrenergic α2B (0.03 μM), compound at 0.03 μM, repeat datapoints each shown
[11] = 0.1 μM compound, read-out: Percentage inhibition of ligand binding, Adrenergic α1B
[12] = compound at 0.1 μM, [3H]Prazosin, repeat assays, each datapoint shown, read-out: Percentage inhibition of ligand binding, Adrenergic α1B

## Cc1ccc2c(c1)c1c(n2CC(N=[N+]=[N-])c2ccncc2)CCN(C)C1 (racemic) [V-1a, 5-(2-azido-2-(pyridin-4-yl)ethyl)-2,3,4,5-tetrahydro-2,8-dimethyl-1H-pyrido[4,3-b]indole]
[1]; [4]
  Percentage inhibition of ligand binding, Adrenergic α1B (0.1 μM): 20%

## Cc1ccc2c(c1)c1c(n2CC(OC(=O)C(N)C(C)C)c2ccncc2)CCN(C)C1 (single isomer, unassigned) [25a]
[2]; [5]
  Percentage inhibition of ligand binding, Adrenergic α2B: 54%
[1]; [6]
  Percentage inhibition of ligand binding, Adrenergic α1B: 4%

## Cc1ccc2c(c1)c1c(n2CC(OC(=O)C(N)C(C)C)c2ccncc2)CCN(C)C1 (single isomer, unassigned) [25b]
[2]; [5]
  Percentage inhibition of ligand binding, Adrenergic α2B: 75%
[1]; [6]
  Percentage inhibition of ligand binding, Adrenergic α1B: 12%

## Cc1ccc2c(c1)c1c(n2CC(O)c2ccc(C(=O)N(C)C)cc2)CCN(C)C1 (single isomer, unassigned) [52a]
[3]; [7]
  Percentage inhibition of ligand binding, Adrenergic α2A: 5%
[1]; [6]
  Percentage inhibition of ligand binding, Adrenergic α1B: 9%

## Cc1ccc2c(c1)c1c(n2CC(O)c2ccc(C(=O)N(C)C)cc2)CCN(C)C1 (single isomer, unassigned) [52b]
[3]; [7]
  Percentage inhibition of ligand binding, Adrenergic α2A: 29%
[1]; [6]
  Percentage inhibition of ligand binding, Adrenergic α1B: 73%

## Cc1ccc(CCn2c3c(c4cc(Cl)cnc42)C2CCCN2CC3)cn1 (single isomer, unassigned) [137a]
[2]; [8]
  Percentage inhibition of ligand binding, Adrenergic α2B (0.03 μM): 104%
[1]; [4]
  Percentage inhibition of ligand binding, Adrenergic α1B (0.1 μM): 94%

## Cc1ccc2c(c1)c1c(n2CC(O)c2ccc(C#N)cc2)CCN(C)C1 (single isomer, unassigned) [142a]
[2]; [8]
  Percentage inhibition of ligand binding, Adrenergic α2B (0.03 μM): 71%
[1]; [9]
  inhibition at 0.1 µM: 68%

## CN1CCc2c(c3cc(Cl)ccc3n2CC(C)(O)c2ccc(C(F)(F)F)nc2)C1 (single isomer, unassigned) [143a]
[1]; [4]
  Percentage inhibition of ligand binding, Adrenergic α1B (0.1 μM): 43%

## Cc1ccc2c(c1)c1c(n2CC(c2ccncc2)N2CCCC2)CCN(C)C1 (single isomer, unassigned) [152b]
[1]; [4]
  Percentage inhibition of ligand binding, Adrenergic α1B (0.1 μM): 7%

## Cc1cnc2c(c1)c1c(n2CC(N)c2ccc(C#N)cc2)CCN(C)C1 (single isomer, unassigned) [159a]
[2]; [10]
  inhibition at 0.03 µM: 37%
[1]; [4]
  Percentage inhibition of ligand binding, Adrenergic α1B (0.1 μM): −2%

## CN1CCc2c(n(CC(O)c3ccc(F)c(F)c3)c3ccc(Cl)cc23)CC1 (single isomer, unassigned) [339a]
[3]; 0.1 μM compound
  Percentage inhibition of ligand binding, Adrenergic α2A: 37%
[1]; [11]
  inhibition at 0.1 µM: 13%

## Cc1ccc2c(c1)c1c(n2CC(O)c2cn[nH]c2)CCN(C)C1 (single isomer, unassigned) [II-106a]
[1]; [9]
  inhibition at 0.1 µM: 25%

## Cc1ccc2c(c1)c1c(n2CC(O)c2cn[nH]c2)CCN(C)C1 (single isomer, unassigned) [II-106b]
[3]; compound at 0.1 μM, [3H]MK-912
  Percentage inhibition of ligand binding, Adrenergic α2A (0.1 μM): 8%
[1]; [4]
  Percentage inhibition of ligand binding, Adrenergic α1B (0.1 μM): 31%

## Cc1ccc2c(c1)c1c(n2CC(C)(O)c2cccnc2)CCN(C)C1C (single isomer, unassigned) [II-152d]
[3]; compound at 0.1 μM, [3H]MK-912
  Percentage inhibition of ligand binding, Adrenergic α2A (0.1 μM): 8%
[1]; [4]
  Percentage inhibition of ligand binding, Adrenergic α1B (0.1 μM): 5%

## Cc1ccc2c(c1)c1c(n2CC(O)c2ccc(F)cc2)CCN(C)C1 (stereo not drawn) [30a]
[1]; [6]
  Percentage inhibition of ligand binding, Adrenergic α1B: 57%

## Cc1ccc2c(c1)c1c(n2CC(O)c2ccncc2)CCN2CCCC12 (stereo not drawn) [129a]
[3]; [3H]MK-912
  inhibition at 0.1 µM: 46%
[1]; [9]
  inhibition at 0.1 µM: 73%

## Cc1ccc2c(c1)c1c(n2CC(O)c2ccncc2)CCN2CCCC12 (stereo not drawn) [129b]
[1]; [4]
  Percentage inhibition of ligand binding, Adrenergic α1B (0.1 μM): 69%

## Cc1ccc2c(c1)c1c(n2CC(c2ccncc2)N(C)C)CCN(C)C1 (stereo not drawn) [150b]
[3]; [3H]MK-912
  inhibition at 0.1 µM: 5%
[1]; [9]
  inhibition at 0.1 µM: 7%

## Cc1ccc2c(c1)c1c(n2CC(C)(O)c2ccc(C)nc2)CN(C)CC1 (stereo not drawn) [196b]
[2]; [10]
  inhibition at 0.03 µM: -2%
[1]; [9]
  inhibition at 0.1 µM: 37%

## Cc1ccc2c(c1)c1c(n2CC(C)(O)c2cccnc2)CC[N+](C)([O-])C1 (stereo not drawn) [II-105, 1-(2,8-dimethyl-2-oxy-1,2,3,4-tetrahydro-pyrido[4,3-b]indol-5-yl)-2-pyridin-3-yl-propan-2-ol]
[2]; 0.1 μM compound, read-out: Percentage inhibition of ligand binding, Adrenergic α2B
  inhibition at 0.1 µM: 27%
[2]; read-out: Ki α2B
  Ki: 152 nM
[1]; [11]
  inhibition at 0.1 µM: 5%

## CN1CCc2c(c3cc(Cl)ccc3n2CC(O)c2cccnc2)C1 (stereo not drawn) [compound 7]
[2]; compound at 0.03 μM, repeat assays, each datapoint shown, read-out: Percentage inhibition of ligand binding, Adrenergic α2B
  inhibition at 0.03 µM: 59%
[1]; [12]
  inhibition at 0.1 µM: 35%

## Cc1ccc2c(c1)c1c(n2CC(O)c2ccncc2)C(C)N2CCC1C2 (stereo not drawn) [compound 38]
[1]; [12]
  inhibition at 0.1 µM: 20%

## CN1CCc2c(n(CC(O)c3ccncc3)c3ccc(Cl)cc23)C1 (stereo not drawn) [compound 41]
[1]; [12]
  inhibition at 0.1 µM: 57%
